Experimental data taken from US8791141B2, “Organic compounds” (Novartis AG, priority 2008, dated 2014).

Legend:
[1] = target: T1, CYP11B1 (steroid 11-hydroxylase) (Homo sapiens, UniProt P15538); assay: Inhibition of cortisol secretion in NCI-H295R cells; type: cell-based; conditions: human adrenocortical carcinoma NCI-H295R cells, 24 hours with cell stimulant
T1 construct: the NCI-H295R cells have CYP11B2 (aldosterone synthase) and CYP11B1 (steroid 11-hydroxylase); host or cells: NCI-H295R
T1 sequence (P15538 25-503): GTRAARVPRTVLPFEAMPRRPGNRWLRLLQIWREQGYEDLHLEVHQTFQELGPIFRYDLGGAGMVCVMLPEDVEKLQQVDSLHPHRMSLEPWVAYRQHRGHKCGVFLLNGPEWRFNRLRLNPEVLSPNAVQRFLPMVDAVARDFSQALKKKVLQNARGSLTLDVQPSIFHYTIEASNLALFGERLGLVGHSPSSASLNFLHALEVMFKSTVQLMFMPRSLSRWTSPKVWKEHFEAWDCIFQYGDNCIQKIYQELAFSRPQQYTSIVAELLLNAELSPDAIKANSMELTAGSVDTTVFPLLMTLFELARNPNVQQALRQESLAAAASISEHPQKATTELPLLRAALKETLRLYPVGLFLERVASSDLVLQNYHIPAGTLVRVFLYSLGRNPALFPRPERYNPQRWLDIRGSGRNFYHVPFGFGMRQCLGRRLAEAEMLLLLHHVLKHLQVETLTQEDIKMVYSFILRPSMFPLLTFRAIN
Text: (§1) The activities of a compound according to the present invention can be assessed by the following in vitro method well-described in the art.
(§2) In particular, the inhibition of aldosterone and cortisol secretion in vitro can be determined by the following assay.
(§3) The cell line NCI-H295R was originally isolated from an adrenocortical carcinoma and has been characterized in the literature through the stimulable secretion of steroid hormones and the presence of the enzymes essential for steroidogenesis. The cells show the physiological property of zonally undifferentiated human foetal adrenocortical cells which, however, have the capacity to produce the steroid hormones which are formed in the three phenotypically distinguishable zones in the adult adrenal cortex. Thus, the NCI-H295R cells have CYP11B2 (aldosterone synthase) and CYP11B1 (steroid 11-hydroxylase).
(§4) The human adrenocortical carcinoma NCI-H295R cell line is obtained from American Type Culture Collection (Manassas, Va.). Insulin/transferrin/selenium (ITS)-A supplement (100×), DMEM/F-12, antibiotic/antimycotic (100×), and fetal calf serum (FCS) are purchased from Invitrogen (Carlsbad, Calif.). Anti-mouse PVT scintillation proximity assay (SPA) beads and NBS 96-well plates are obtained from Amersham (Piscataway, N.J.) and Corning (Acton, Mass.), respectively. Clear bottom 96-well flat bottom plates are purchased from Costar (Corning, N.Y.). Aldosterone and angiotensin (Ang II) are purchased from Sigma (St. Louis, Mo.). D[1,2,6,7-3H(N)]aldosterone and [1,2,6,7-3H(N)]cortisol are acquired from PerkinElmer (Boston, Mass.). Nu-serum is a product of BD Biosciences (Franklin Lakes, N.J.).
(§5) For in vitro measurement of aldosterone and cortisol activity, human adrenocortical carcinoma NCI-H295R cells are seeded in NBS 96-well plates at a density of 25,000 cells/well in 100 μL of a growth medium containing DMEM/F12 supplemented with 10% FCS, 2.5% Nu-serum, 1 μg ITS/ml, and 1× antibiotic/antimycotic. The medium is changed after culturing for 3 days at 37° C. under an atmosphere of 5% CO2/95% air. On the following day, cells are rinsed with 100 μL of DMEM/F12 and incubated in quadruplicate wells at 37° C. for 24 hours with 100 μL of treatment medium containing a cell stimulant and a compound at different concentrations. […] Cell stimulants which can be used are angiotensin-II (1 micromolar), potassium ions (16 millimolar), forskolin (10 micromolar) or a combination of two stimulants. At the end of incubation, the excretion of aldosterone and cortisol into the culture medium can be detected and quantified by commercially available, specific monoclonal antibodies in radioimmunoassays in accordance with the manufacturer's instructions.
(§6) Measurement of aldosterone can also be performed using a 96-well plate format. Each test sample is incubated with 0.02 μCi of D[1,2,6,7-3H(N)]aldosterone and 0.3 μg of anti-aldosterone antibody in phosphate-buffered saline (PBS) containing 0.1% Triton X-100, 0.1% bovine serum albumin, and 12% glycerol in a total volume of 200 μL at room temperature for 1 hour. Anti-mouse PVT SPA beads (50 μL) are then added to each well and incubated overnight at room temperature prior to counting in a Microbeta plate counter. The amount of aldosterone in each sample is calculated by comparing with a standard curve generated using known quantities of the hormone. Measurement of cortisol can be performed in a manner similar to that of aldosterone, except that [1,2,6,7-3H(N)]cortisol is used.
(§7) Inhibition of the release of a steroid can be used as a measure of the respective enzyme inhibition by the added test compounds. The dose-dependent inhibition of enzymatic activity by a compound is calculated by means of an inhibition plot which is characterized by an IC50. […] The inhibition plot is calculated by fitting a 4-parameter logistic function to the raw data points using the least squares method.

[2] = target: T2, CYP11B2 (aldosterone synthase) (Homo sapiens, UniProt P19099); assay: Inhibition of aldosterone secretion in NCI-H295R cells; type: cell-based; conditions: human adrenocortical carcinoma NCI-H295R cells, 24 hours with cell stimulant
T2 construct: the NCI-H295R cells have CYP11B2 (aldosterone synthase) and CYP11B1 (steroid 11-hydroxylase); host or cells: NCI-H295R
T2 sequence (P19099 25-503): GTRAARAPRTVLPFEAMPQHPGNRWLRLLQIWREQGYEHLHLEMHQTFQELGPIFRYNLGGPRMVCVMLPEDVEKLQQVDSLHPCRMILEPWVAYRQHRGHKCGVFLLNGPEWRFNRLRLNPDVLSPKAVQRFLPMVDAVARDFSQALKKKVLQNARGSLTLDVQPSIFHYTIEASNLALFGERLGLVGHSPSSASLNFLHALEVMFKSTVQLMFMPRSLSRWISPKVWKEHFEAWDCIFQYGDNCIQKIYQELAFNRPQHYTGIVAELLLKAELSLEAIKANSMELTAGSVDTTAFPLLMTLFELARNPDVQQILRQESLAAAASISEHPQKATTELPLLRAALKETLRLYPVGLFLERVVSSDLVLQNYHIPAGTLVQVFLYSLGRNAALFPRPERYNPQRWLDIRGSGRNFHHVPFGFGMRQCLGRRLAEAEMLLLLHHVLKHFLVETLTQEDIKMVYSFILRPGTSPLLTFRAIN
Text: as §1, §2, §3, §4, §5, §6, §7

IC50 [1]: > 1000 nM
IC50 [2]: 23 nM
SMILES: CCNS(=O)(=O)c1cncc(-c2cc3ccccc3n2C)c1 [Example 242, N-ethyl-5-(1-methyl-1H-indol-2-yl)pyridine-3-sulfonamide]
